In patent US3996360A, “Piperazine compounds” (Knoll A.G. Chemische Fabriken, priority 1974, dated 1976):
Where two headings read alike, the source gives them in different places.

How the values were obtained:
[1] = tested on: left auricle of the guinea pig; experiment: Functional refractory period of the left auricle, paired electrical stimulation (method of Govier); details: for percent lengthening of refractory period at 0.01 µM: Cavia porcellus, read-out: Antiarrhythmic Effect (Lengthening of the refractory period in percent); for percent lengthening of refractory period at 0.01 µM / Antiarrhythmic Effect (Lengthening of the refractory period in percent): Table 2, dose in each case 10^^-5 millimoles/liter; for Antiarrhythmic Effect (Lengthening of the Refractory Period) ED25: Table 1, effective dose which lengthens the refractory period by 25 percent
From the text: Evidence of the anti-arrhythmic effect of the new compounds is obtained in experimental animals by determination of the functional refractory period of the left auricle of the guinea pig with the aid of paired electrical stimulation employing the method of W. C. Govier, J. Pharmacol. Exp. Therap. 148, 100 - 105 (1965). In this experimental arrangement, those anti-arrhythmic agents already known for use in therapy, of differing structure and of different points of attack in the human, all distinguish themselves by lengthening the functional refractory period. The method additionally permits a determination of the effects of the substances on the contractile force of the heart muscle [cf. Reuter and Heeg, Naunyn-Schmiedeberg's Arch. Pharmak. 268, 323 - 333 (1971) and Zettler and Strubelt, Naunyn-Schmiedeberg's Arch. Pharmak. 271, 335 - 345 (1971)].
The testing of the substances in each case involves up to thirty individual experiments. For the dosage effect relationships, linear regression functions were calculated [A. Lindner, Statistische Methoden, 3rd Edition, Birkhaeuser Verlag, Basel (1969)], wherein the maximum percentage deviations from the starting value over a period of up to 60 minutes after addition of the test substance to the bath fluid were employed.
In following Table 1, column I, the optical isomers of one of the compounds of the invention and known anti-arrhythmic agents are named. Column II reports their anti-arrhythmic effect. Column III gives the inotropic effect, and column IV represents the therapeutic breadth of the compounds. The ED25 is the effective dose which lengthens the refractory period by 25 percent or reduces the contractile force by 25 percent.
The dose in each case is 10^^-5 millimoles/liter.

[2] = tested on: disturbances of the heart-beat rhythm; experiment: Aconitine-induced disturbances of the heart rhythm, intravenous pretreatment; format: in vivo, rats; details: intravenous; for ED25 / ED50: Rattus norvegicus; for Ventricular Flutter ED25: dose raising administered aconitine dose by 25 percent prior to ventricular flutter; for Ventricular Flutter ED50: dose raising administered aconitine dose by 50 percent prior to ventricular flutter
From the text: (§1) The anti-arrhythmic effect of the new compounds can also be determined in intact test animals by experimentally-induced disturbances of the heart rhythm. If rats are continually infused intravenously with aconitine, serious disturbances of the heart-beat rhythm, such as extrasystoles, ventricular tachycardia, and ventricular flutter, which disturbances eventually lead to the death of the test animals, are evident in an electrocardiogram. […] Bianchi et al., Arzneim. Forsch. 18, 845 - 850 (1968); Haas and Busch, Arzneim. Forsch. 18, 401 - 407 (1968); Haas et al., Arzneim. Forsch. 21, 1392 - 1399 (1971); Marmo, Naunyn-Schmiedeberg's Arch. Pharmak. 269, 231 - 247 (1971); Strubelt et al., Naunym-Schmiedeberg's Arch. Pharmak. 271, 346 - 360 ( 1971)].
The ED25 and ED50 are the intravenous doses, in mg/kg, which raise the administered aconitine doses, in comparison with the aconitine control, by 25 percent or 50 percent prior to the appearance of extrasystoles, ventricular tachycardia, and ventricular flutter.

[3] = tested on: disturbances of the heart-beat rhythm; experiment: Aconitine-induced disturbances of the heart rhythm, long term effect after peroral treatment; format: in vivo; details: rats, perorally 400 mg/kg, eight hours after administration, vs untreated animals
From the text: as §1

[4] = tested on: left auricle of the guinea pig; experiment: Inotropic effect: contractile force of the heart muscle (left auricle); details: Table 1; for Inotropic Effect (Decrease in Contractile Force) ED25: effective dose which reduces the contractile force by 25 percent; for Therapeutic Breadth (III/II): ratio inotropic ED25 / antiarrhythmic ED25
From the text: Evidence of the anti-arrhythmic effect of the new compounds is obtained in experimental animals by determination of the functional refractory period of the left auricle of the guinea pig with the aid of paired electrical stimulation employing the method of […]. Pharmacol. Exp. Therap. 148, 100 - 105 (1965). In this experimental arrangement, those anti-arrhythmic agents already known for use in therapy, of differing structure and of different points of attack in the human, all distinguish themselves by lengthening the functional refractory period. The method additionally permits a determination of the effects of the substances on the contractile force of the heart muscle [cf. Reuter and Heeg, Naunyn-Schmiedeberg's Arch. Pharmak. 268, 323 - 333 (1971) and Zettler and Strubelt, Naunyn-Schmiedeberg's Arch. Pharmak. 271, 335 - 345 (1971)]. The testing of the substances in each case involves up to thirty individual experiments. For the dosage effect relationships, linear regression functions were calculated [[…] Methoden, 3rd Edition, Birkhaeuser Verlag, Basel (1969)], wherein the maximum percentage deviations from the starting value over a period of up to 60 minutes after addition of the test substance to the bath fluid were employed. In following Table 1, column I, the optical isomers of one of the compounds of the invention and known anti-arrhythmic agents are named. Column II reports their anti-arrhythmic effect. Column III gives the inotropic effect, and column IV represents the therapeutic breadth of the compounds. The ED25 is the effective dose which lengthens the refractory period by 25 percent or reduces the contractile force by 25 percent.

[5] = dose raising administered aconitine dose by 25 percent prior to ventricular tachycardia, read-out: Ventricular Tachycardia ED25
[6] = dose raising administered aconitine dose by 50 percent prior to ventricular tachycardia, read-out: Ventricular Tachycardia ED50

CC[C@H]1[C@@H]2C[C@H]3[C@@H]4N(C)c5ccccc5[C@]45C[C@@H]([C@@H]2[C@H]5O)N3[C@@H]1O [Ajmaline, reference compound]
percent lengthening of refractory period at 0.01 µM [1]: 14%

C1CCN2C[C@@H]3C[C@@H](CN4CCCC[C@@H]34)[C@H]2C1 [Sparteine]
ED25 [2, 5]: 4.4 mg/kg
ED50 [2, 6]: 9.5 mg/kg
Extrasystoles ED25 ([2]; dose raising administered aconitine dose by 25 percent prior to extrasystoles): +
Ventricular Flutter ED25 [2]: +
Extrasystoles ED50 ([2]; dose raising administered aconitine dose by 50 percent prior to extrasystoles): +
Ventricular Flutter ED50 [2]: +

COc1ccc(CC2(C)CN(C(c3ccccc3)c3ccccc3)CCN2)cc1OC (centres unmarked) [1-diphenylmethyl-3-methyl-3-(3,4-dimethoxybenzyl)-piperazine] [listing 1 of 2 here]
effectiveness (in words) [1]: outstanding

COc1ccc(CC2(C)CN(C(c3ccccc3)c3ccccc3)CCN2CCO)cc1OC (centres unmarked) [(D)-1-diphenylmethyl-3-methyl-3-(3,4-dimethoxybenzyl)-4-hydr] [(D)-1-diphenylmethyl-3-methyl-3-(3,4-dimethoxybenzyl)-4-hydroxyethyl-piperazine]
Antiarrhythmic Effect (Lengthening of the refractory period in percent) [1]: 72%

CCCN1CCN(C(c2ccccc2)c2ccccc2)CC1(C)Cc1ccc(OC)c(OC)c1 (centres unmarked) [(D)-1-diphenylmethyl-3-methyl-3-(3,4-dimethoxybenzyl)-4-n-propyl-piperazine]
percent lengthening of refractory period at 0.01 µM [1]: 51%

COc1ccc(CC2(C)CN(C(c3ccccc3)c3ccccc3)CCN2C)cc1OC (centres unmarked) [(D)-1-diphenylmethyl-3-methyl-3-(3,4-dimethoxybenzyl)-4-meth] [(D)-1-diphenylmethyl-3-methyl-3-(3,4-dimethoxybenzyl)-4-methyl-piperazine]
higher dose of aconitine required before the appearance of extrasystoles [3]: 68%
higher dose of aconitine required before the appearance of ventricular flutter [3]: 70%
higher dose of aconitine required before the appearance of ventricular tachycardia [3]: 75%
Inotropic Effect (Decrease in Contractile Force) ED25 [4]: 0.0093
Antiarrhythmic Effect (Lengthening of the Refractory Period) ED25 [1]: 0.0063
Antiarrhythmic Effect (Lengthening of the refractory period in percent) [1]: 50%

COc1ccc(CC2(C)CN(C(c3ccccc3)c3ccc(Cl)cc3)CCN2CCO)cc1OC (centres unmarked) [1-(p-chlorophenyl-phenylmethyl)-3-methyl-3-(3,4-dimethoxybenzyl)-4-hydroxyethyl-piperazine]
percent lengthening of refractory period at 0.01 µM [1]: 55%

COc1ccc(CC2(C)CN(C(c3ccccc3)c3ccccc3)CCN2C)cc1OC (centres unmarked) [(L)-1-diphenylmethyl-3-methyl-3-(3,4-dimethoxybenzyl)-4-meth] [(L)-1-diphenylmethyl-3-methyl-3-(3,4-dimethoxybenzyl)-4-methyl-piperazine]
Inotropic Effect (Decrease in Contractile Force) ED25 [4]: 0.0052
Therapeutic Breadth (III/II) [4]: 0.9
Antiarrhythmic Effect (Lengthening of the Refractory Period) ED25 [1]: 0.0056
Antiarrhythmic Effect (Lengthening of the refractory period in percent) [1]: 73%

CCN1CCN(C(c2ccccc2)c2ccccc2)CC1(C)Cc1ccc(OC)c(OC)c1 (centres unmarked) [(L)-1-diphenylmethyl-3-methyl-3-(3,4-dimethoxybenzyl)-4-ethyl-piperazine]
percent lengthening of refractory period at 0.01 µM [1]: 48%

COc1ccc(CC2(C)CN(C(c3ccccc3)c3ccccc3)CCN2CCO)cc1OC (centres unmarked) [1-diphenylmethyl-3-methyl-3-(3,4-dimethoxybenzyl)-4-hydroxyethylpiperazine]
percent lengthening of refractory period at 0.01 µM [1]: 55%

COc1ccc(CC2(C)CN(C(c3ccccc3)c3ccc(Cl)cc3)CCN2)cc1OC (centres unmarked) [1-(p-chlorophenyl-phenylmethyl)-3-methyl-3-(3,4-dimethoxybenzyl)-piperazine]
percent lengthening of refractory period at 0.01 µM [1]: 28%

COc1ccc(CC2(C)CN(C(c3ccccc3)c3ccccc3)CCN2C)cc1OC (centres unmarked) [1-diphenylmethyl-3-methyl-3-(3,4-dimethoxybenzyl)-4-methyl-p] [1-diphenylmethyl-3-methyl-3-(3,4-dimethoxybenzyl)-4-methyl-piperazine]
Antiarrhythmic Effect (Lengthening of the refractory period in percent) [1]: 64%

CCCCN1CCN(C(c2ccccc2)c2ccccc2)CC1(C)Cc1ccc(OC)c(OC)c1 (centres unmarked) [(D)-1-diphenylmethyl-3-methyl-3-(3,4-dimethoxybenzyl)-4-n-butyl-piperazine]
percent lengthening of refractory period at 0.01 µM [1]: 31%

CCN(CC)CCNC(=O)c1ccc(N)cc1 [Procainamide]
higher dose of aconitine required before the appearance of extrasystoles [3]: 16%
higher dose of aconitine required before the appearance of ventricular flutter [3]: 29%
higher dose of aconitine required before the appearance of ventricular tachycardia [3]: 12%
ED25 ([2]; dose raising administered aconitine dose by 25 percent prior to extrasystoles, read-out: Extrasystoles ED25): 6.8 mg/kg
ED25 [2, 5]: 6.8 mg/kg
ED50 ([2]; dose raising administered aconitine dose by 50 percent prior to extrasystoles, read-out: Extrasystoles ED50): 52.6 mg/kg
ED50 [2, 6]: 29.1 mg/kg
Ventricular Flutter ED25 [2]: +
Ventricular Flutter ED50 [2]: +

COc1ccc(CC2(C)CN(C(c3ccccc3)c3ccccc3)CCN2)cc1OC (centres unmarked) [(D)-1-diphenylmethyl-3-methyl-3-(3,4-dimethoxybenzyl)-pipera] [(D)-1-diphenylmethyl-3-methyl-3-(3,4-dimethoxybenzyl)-piperazine]
Antiarrhythmic Effect (Lengthening of the refractory period in percent) [1]: 31%

COc1ccc(CC2(C)CN(C(c3ccccc3)c3ccccc3)CCN2)cc1OC (centres unmarked) [1-diphenylmethyl-3-methyl-3-(3,4-dimethoxybenzyl)-piperazine] [listing 2 of 2 here]
percent lengthening of refractory period at 0.01 µM [1]: 46%

CCN1CCN(C(c2ccccc2)c2ccccc2)CC1(C)Cc1ccc(OC)c(OC)c1 (centres unmarked) [(D)-1-diphenylmethyl-3-methyl-3-(3,4-dimethoxybenzyl)-4-ethy] [(D)-1-diphenylmethyl-3-methyl-3-(3,4-dimethoxybenzyl)-4-ethyl-piperazine]
Antiarrhythmic Effect (Lengthening of the refractory period in percent) [1]: 50%

CCC[N+]12[C@H](O)[C@@H](CC)[C@@H]3C[C@H]1[C@@H]1N(C)c4ccccc4[C@]14C[C@H]2[C@@H]3[C@H]4O [N-n-propylajmaline, reference compound]
Inotropic Effect (Decrease in Contractile Force) ED25 [4]: 0.0015
Therapeutic Breadth (III/II) [4]: 0.4
Antiarrhythmic Effect (Lengthening of the Refractory Period) ED25 [1]: 0.0037
